Reference: the supplement of paper PMC10307832

Experiments:
Experiment in all cases: relative viability (nuclei count vs DMSO), 5 days (fraction); higher = more cells survive
Omipalisib + Pictilisib = compound: COc1ncc(-c2ccc3nccc(-c4ccnnc4)c3c2)cc1NS(=O)(=O)c1ccc(F)cc1F [Omipalisib] + CS(=O)(=O)N1CCN(Cc2cc3nc(-c4cccc5[nH]ncc45)nc(N4CCOCC4)c3s2)CC1 [Pictilisib] (partner 1 µM)
Summary of the method: (§1)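 Relative viability is defined as nuclei in treated wells over nuclei in vehicle wells. Duplicate plates were run and medians reported. Lung cancer cell lines in 1536-well plates were dosed by pin tool one day after seeding, with one drug or with a fixed anchor-drug dose plus five library-drug doses (not always all listed) in √10 steps, and nuclei were counted after 5 days.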

Omipalisib + Vorinostat = compound: COc1ncc(-c2ccc3nccc(-c4ccnnc4)c3c2)cc1NS(=O)(=O)c1ccc(F)cc1F [Omipalisib] + O=C(CCCCCCC(=O)Nc1ccccc1)NO [Vorinostat] (partner 1 µM)
Summary of the method: as §1

Omipalisib + Navitoclax = compound: COc1ncc(-c2ccc3nccc(-c4ccnnc4)c3c2)cc1NS(=O)(=O)c1ccc(F)cc1F [Omipalisib] + CC1(C)CCC(c2ccc(Cl)cc2)=C(CN2CCN(c3ccc(C(=O)NS(=O)(=O)c4ccc(N[C@H](CCN5CCOCC5)CSc5ccccc5)c(S(=O)(=O)C(F)(F)F)c4)cc3)CC2)C1 [Navitoclax] (partner 0.5 µM)
Summary of the method: as §1

Omipalisib + Linsitinib = compound: COc1ncc(-c2ccc3nccc(-c4ccnnc4)c3c2)cc1NS(=O)(=O)c1ccc(F)cc1F [Omipalisib] + C[C@]1(O)C[C@@H](c2nc(-c3ccc4ccc(-c5ccccc5)nc4c3)c3c(N)nccn32)C1 [Linsitinib] (partner 1 µM)
Summary of the method: as §1

Omipalisib + Alpelisib = compound: COc1ncc(-c2ccc3nccc(-c4ccnnc4)c3c2)cc1NS(=O)(=O)c1ccc(F)cc1F [Omipalisib] + Cc1nc(NC(=O)N2CCC[C@H]2C(N)=O)sc1-c1ccnc(C(C)(C)C(F)(F)F)c1 [Alpelisib] (partner 2 µM)
Summary of the method: as §1

Omipalisib = compound: COc1ncc(-c2ccc3nccc(-c4ccnnc4)c3c2)cc1NS(=O)(=O)c1ccc(F)cc1F [Omipalisib]
Summary of the method: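 Lung cancer cell lines in 1536-well plates were exposed by pinning to five library-drug doses (not always all listed) √10 apart, following an overnight hold at 37 °C. MetaXpress counted Hoechst-stained nuclei from 4× images taken after 5 days without medium change. Viability is the median ratio of treated-well to vehicle-well nuclei across plates. Plates required control CV below 25% and at least one doubling.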

Cell Line | relative viability (Omipalisib + Pictilisib; first compound 0.0003 µM) | relative viability (Omipalisib + Pictilisib; first compound 0.003 µM) | relative viability (Omipalisib + Pictilisib; first compound 0.03 µM) | relative viability (Omipalisib + Vorinostat; first compound 0.0003 µM) | relative viability (Omipalisib + Vorinostat; first compound 0.003 µM) | relative viability (Omipalisib + Vorinostat; first compound 0.03 µM) | relative viability (Omipalisib + Navitoclax; first compound 0.0003 µM) | relative viability (Omipalisib + Navitoclax; first compound 0.003 µM) | relative viability (Omipalisib + Navitoclax; first compound 0.03 µM) | relative viability (Omipalisib + Linsitinib; first compound 0.0003 µM) | relative viability (Omipalisib + Linsitinib; first compound 0.003 µM) | relative viability (Omipalisib + Linsitinib; first compound 0.03 µM) | relative viability (Omipalisib + Alpelisib; first compound 0.0003 µM) | relative viability (Omipalisib + Alpelisib; first compound 0.003 µM) | relative viability (Omipalisib + Alpelisib; first compound 0.03 µM) | relative viability (Omipalisib; 0.0003 µM) | relative viability (Omipalisib; 0.003 µM) | relative viability (Omipalisib; 0.03 µM)
201T | 0.706 | 0.668 | 0.554 | 1.01 | 0.855 | 0.453 | 1.21 | 1.2 | 0.838 | 1.03 | 0.916 | 0.769 | 1.02 | 0.999 | 0.735 | 0.986 | 1.03 | 0.729
A-427 | 0.729 | 0.697 | 0.744 | 0.885 | 0.877 | 0.867 | 0.957 | 0.732 | 0.872 | 1.11 | 1.09 | 0.968 | 1.1 | 0.993 | 1.03 | 0.994 | 0.866 | 0.828
ABC-1 | 0.72 | 0.628 | 0.533 | 1.04 | 0.76 | 0.692 | – | – | – | 0.771 | 0.572 | 0.586 | 0.734 | 0.879 | 0.677 | 1.02 | 0.705 | 0.538
BEN | 0.513 | 0.378 | 0.412 | 0.502 | 0.498 | 0.452 | 0.0683 | 0.0526 | 0.0581 | 0.669 | 0.497 | 0.554 | 0.781 | 0.58 | 0.585 | 0.789 | 0.577 | 0.712
CAL-12T | 0.579 | 0.524 | 0.385 | 0.666 | 0.386 | 0.34 | 1.1 | 1.17 | 0.466 | 0.75 | 0.822 | 0.513 | 0.989 | 0.95 | 0.774 | 1.12 | 1.1 | 0.594
COR-L23 | 0.723 | 0.709 | 0.449 | 0.404 | 0.377 | 0.242 | 1.15 | 0.778 | 0.432 | 0.813 | 0.771 | 0.38 | 0.879 | 0.801 | 0.431 | 1.01 | 1 | 0.631
COR-L 105 | 0.349 | 0.356 | 0.299 | 0.853 | 0.809 | 0.568 | 0.701 | 0.714 | 0.434 | 0.963 | 0.835 | 0.717 | 0.944 | 0.837 | 0.601 | 0.937 | 0.976 | 0.535
ChaGo-K-1 | 0.635 | 0.652 | 0.809 | 0.732 | 0.619 | 0.675 | 0.762 | 0.686 | 0.945 | – | – | – | – | – | – | 0.978 | 0.917 | 0.919
EKVX | 0.45 | 0.434 | 0.393 | 0.709 | 0.588 | 0.256 | 0.979 | 0.773 | 0.48 | 1.06 | 0.76 | 0.456 | 0.85 | 0.72 | 0.397 | 0.985 | 0.79 | 0.44
EMC-BAC-2 | 0.514 | 0.465 | 0.432 | 0.382 | 0.317 | 0.298 | 1.12 | 0.92 | 0.566 | 0.797 | 0.693 | 0.438 | 0.759 | 0.663 | 0.505 | 0.848 | 0.613 | 0.549
EPLC-272H | 0.403 | 0.377 | 0.298 | 0.586 | 0.295 | 0.129 | 1.12 | 0.945 | 0.327 | 1.38 | 0.893 | 0.248 | 0.883 | 0.794 | 0.477 | 0.958 | 0.661 | 0.387
H3255 | 0.432 | 0.439 | 0.293 | 0.811 | 0.623 | 0.269 | 0.495 | 0.362 | 0.201 | 0.999 | 0.888 | 0.485 | 0.714 | 0.606 | 0.444 | 0.93 | 0.85 | 0.51
HARA | 0.464 | 0.661 | 0.354 | 0.453 | 0.459 | 0.201 | 1.1 | 1.19 | 0.733 | 0.949 | 0.691 | 0.275 | 0.769 | 0.704 | 0.434 | 0.952 | 0.822 | 0.42
HCC-15 | 0.698 | 0.599 | 0.702 | 0.816 | 0.651 | 0.489 | 0.667 | 0.54 | 0.462 | 0.929 | 0.77 | 0.799 | 0.922 | 0.73 | 0.789 | 0.973 | 0.691 | 0.7
HCC-44 | 0.579 | 0.464 | 0.441 | 1.12 | 1.18 | 0.559 | 0.848 | 0.63 | 0.27 | 0.658 | 0.457 | 0.282 | 0.742 | 0.619 | 0.29 | 1.01 | 0.953 | 0.416
